Values quoted from earlier work as cited in publication PMC4001449, “Thienoquinolines as Novel Disruptors of the PKCε/RACK2 Protein–Protein Interaction” (Journal of Medicinal Chemistry, 2014).

Experiments:
Settings in all cases: cited from earlier work
PKCε = molecular target: T1, PKCε (Homo sapiens, UniProt Q02156); design: method as in PMID 21186251
T1 sequence (Q02156 1-737): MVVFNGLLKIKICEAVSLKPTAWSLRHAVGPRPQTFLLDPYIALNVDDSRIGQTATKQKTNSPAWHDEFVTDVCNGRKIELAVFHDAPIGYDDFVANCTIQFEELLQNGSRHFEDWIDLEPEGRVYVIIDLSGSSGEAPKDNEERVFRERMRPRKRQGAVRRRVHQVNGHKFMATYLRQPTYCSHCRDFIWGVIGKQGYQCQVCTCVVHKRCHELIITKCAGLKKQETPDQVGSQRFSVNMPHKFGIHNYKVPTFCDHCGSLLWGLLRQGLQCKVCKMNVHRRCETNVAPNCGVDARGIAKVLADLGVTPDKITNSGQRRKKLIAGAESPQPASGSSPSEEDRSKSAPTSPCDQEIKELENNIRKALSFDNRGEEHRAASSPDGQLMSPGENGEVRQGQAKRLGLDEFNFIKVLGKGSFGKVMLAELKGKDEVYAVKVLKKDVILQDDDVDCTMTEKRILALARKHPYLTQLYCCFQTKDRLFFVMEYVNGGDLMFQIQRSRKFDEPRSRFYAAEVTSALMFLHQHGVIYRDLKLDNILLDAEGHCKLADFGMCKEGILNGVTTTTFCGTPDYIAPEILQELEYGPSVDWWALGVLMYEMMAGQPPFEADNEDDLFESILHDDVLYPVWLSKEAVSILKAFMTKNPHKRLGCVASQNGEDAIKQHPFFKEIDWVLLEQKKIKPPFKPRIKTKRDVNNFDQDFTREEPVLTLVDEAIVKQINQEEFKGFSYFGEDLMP

PKCη = PKCη (Homo sapiens, UniProt P24723); design: method as in PMID 21186251
PKCη, sequence (P24723 whole entry): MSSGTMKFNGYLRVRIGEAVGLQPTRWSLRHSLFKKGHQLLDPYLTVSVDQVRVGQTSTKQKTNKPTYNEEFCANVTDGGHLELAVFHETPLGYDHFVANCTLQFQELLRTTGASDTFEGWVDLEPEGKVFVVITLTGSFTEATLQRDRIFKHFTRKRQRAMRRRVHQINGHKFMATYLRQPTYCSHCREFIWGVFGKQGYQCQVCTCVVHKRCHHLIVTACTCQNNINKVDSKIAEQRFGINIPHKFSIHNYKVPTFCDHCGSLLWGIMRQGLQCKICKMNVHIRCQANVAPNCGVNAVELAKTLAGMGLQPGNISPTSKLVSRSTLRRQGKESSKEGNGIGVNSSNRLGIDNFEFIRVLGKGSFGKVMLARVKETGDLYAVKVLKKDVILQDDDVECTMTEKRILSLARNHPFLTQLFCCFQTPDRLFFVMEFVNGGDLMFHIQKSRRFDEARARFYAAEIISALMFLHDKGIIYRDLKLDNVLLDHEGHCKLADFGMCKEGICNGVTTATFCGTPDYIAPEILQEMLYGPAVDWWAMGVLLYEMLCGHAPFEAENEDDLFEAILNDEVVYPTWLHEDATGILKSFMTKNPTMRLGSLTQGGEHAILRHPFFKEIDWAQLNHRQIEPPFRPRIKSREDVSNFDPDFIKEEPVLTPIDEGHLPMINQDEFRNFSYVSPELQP

[1] = test system: interaction of PKCι and its adaptor protein Par6; design: method as in PMID 16861740
ribonucleotide reductase = molecular target: ribonucleotide reductase; design: method as in PMID 11668483

## O=C1NC(=O)N(Cc2ccccc2)C(=O)/C1=C\c1ccc2c(c1)OCO2 [BAS 02104951]
PKCε
  Direct inhibition of PKCε: inhibited
PKCη
  Direct inhibition of PKCη: inhibited

## O=C(O)CC([S-])C(=O)O.[Au+] (stereo not shown) [aurothiomalate]
[1]
  Active concentration range, prevention of PKCι/Par6 interaction: ~10 µM

## hydroxyurea
Ribonucleotide reductase
  IC50: 37.2 µM
